Earlier results on two compounds are cited in PMC8036510, “The Inhibitory Effects of Plant Derivate Polyphenols on the Main Protease of SARS Coronavirus 2 and Their Structure–Activity Relationship” (Molecules, 2021).

In data set [1] the test system is M^pro. Further details: method as in PMID 32963564. Particulars: 37 °C for 5 h, same substrate.
Data set [2] has as its system M^pro. Details: method as in PMID 33022015. To be noted: substrate MCA-AVLQSGFR-K(Dnp)-K-NH2.

In brackets after ≈: the same amount, converted by molar mass.

In the case of `O=C(O[C@@H]1Cc2c(O)cc(O)cc2O[C@@H]1c1cc(O)c(O)c(O)c1)c1cc(O)c(O)c(O)c1` [Epigallocatechin gallate (EGCG), Epigallocatechin gallate], the “IC50 on M^pro” value in the data set on M^pro [1] was 7.6 µg/mL (≈ 16.6 µM).

As to `O=C(OC[C@H]1O[C@@H](OC(=O)c2cc(O)c(O)c(OC(=O)c3cc(O)c(O)c(O)c3)c2)[C@H](OC(=O)c2cc(O)c(O)c(OC(=O)c3cc(O)c(O)c(O)c3)c2)[C@@H](OC(=O)c2cc(O)c(O)c(OC(=O)c3cc(O)c(O)c(O)c3)c2)[C@@H]1OC(=O)c1cc(O)c(O)c(OC(=O)c2cc(O)c(O)c(O)c2)c1)c1cc(O)c(O)c(OC(=O)c2cc(O)c(O)c(O)c2)c1` [Tannic acid], the IC50 in the data set on M^pro [2] is 2.1 µM.
